Assay: Human HepG2 cell viability assay in 384 well format
Type: toxicity, cell-based
Design: dose 125 nL, time 70.5 hour; concentration not given beside the values
Details: HepG2 cells, read-out: Inhibition

Row | Compound | cytotoxicity at 70.5 h [%]
1 | Cc1sc(NC(=O)CN(C)S(C)(=O)=O)c(C#N)c1C | 10
2 | CCn1cc(CN2CCCN(C(=O)c3ccc(C)o3)CC2)cn1 | 20.7
3 | Cc1cnn(CC2CCCN2CC(=O)N(C)Cc2ccco2)c1 (centres undefined) | -4.69
4 | O=C(CO)N1CCC(CCc2ccnc(Nc3cnccn3)c2)CC1 | -2.09
5 | CN1CCOC(CNCc2ccc(OCc3ccccn3)cc2)C1 (centres undefined) | -6.69
6 | COc1ccc(CNCc2c(C(C)C)nn(C)c2OC)cn1 | -0.773
7 | CCCC(O)CN1CC(C)(C)CN(C(=O)c2ccc(SC)cc2)CC1=O (centres undefined) | -8.02
8 | COc1cc(NC(=O)NCCO)ccc1N1CCOC1=O | -6.58
9 | COCCC(=O)NC[C@H]1CC[C@H](C(c2ccccn2)N(C)C)CC1 (some centres undefined) | -2.06
10 | COc1ccccc1OC1CCN(c2ccncc2)CC1 | 12.9
11 | Cc1cnc(CNC(=O)C[C@@H]2COC[C@H]3CN(C4CCC4)C[C@@H]23)cn1 | 25.6
12 | CC(C)c1ncc2c(n1)CN(Cc1noc(-c3ccccc3)n1)CC2 | 0.861
13 | CN(Cc1cnn(C)c1)C(=O)c1ccc(=O)n(C)n1 | -1.81
14 | COc1ccc2nc(CNC(=O)c3cc(C(C)C)no3)[nH]c2c1 | 39.1
15 | CCNC(=O)c1ccc(NC(=O)N(C)Cc2cccn2C)c(C)c1 | 5.27
16 | COc1cccc(CNC(=O)NC2(c3nc(C)no3)CCCCC2)c1 | 13.3
17 | O=C(c1ccc(F)c(F)c1)N1CCCCC1c1nc[nH]n1 (centres undefined) | -6.52
18 | N#Cc1cccc(C(=O)N2CCCC(C(=O)CCc3ccccc3)C2)c1 (centres undefined) | -5.64
19 | O=C(NCC1CCOCC1)c1cc(-c2ccc3c(c2)CCO3)n[nH]1 | 17.3
20 | CC(C)(C)OC(=O)N[C@H]1CCN(C(=O)c2cc(Cl)c[nH]2)C1 | -4.47
21 | O=C(Nc1ccc(F)cc1)N1C[C@H]2CC[C@@H]1CN(Cc1cccnc1)C2 | -3.12
22 | CN(C(=O)Cn1nc(-c2ccc(F)cc2)oc1=O)C1CCS(=O)(=O)C1 (centres undefined) | 12.8
23 | COCC(C)NC(=O)CCCn1cnc2ccccc2c1=O (centres undefined) | -5.09

Row | Compound | cytotoxicity at 70.5 h [%]
24 | O=S(=O)(Cc1c(F)cccc1Cl)NCCCN1CCCCCC1 | -1.18
25 | O=C(O)c1cc(-c2cccs2)nc2c(Br)cnn12 | 3.58
26 | O=C(CCNC(=O)c1ccc(Cl)cc1)NCc1nc(C2CC2)no1 | 19.3
27 | Cc1cccc(COc2ccc(C(C)NS(N)(=O)=O)cc2)c1 (centres undefined) | -8.27
28 | O=C(CN1CCOC1=O)N1CCc2nnc(Cc3ccccc3)n2CC1 | 17.1
29 | Cc1csc(C2CCCCN2C(=O)c2cc(Cl)c[nH]2)n1 (centres undefined) | -0.326
30 | CCN1C(=O)CCCC12CCCN(C(=O)c1cc(C)oc1C)C2 (centres undefined) | -9.36
31 | O=C1CCCN1Cc1nnc(SCc2ccc3c(c2)CCC3)o1 | 9.34
32 | Cc1ncsc1C(=O)NC1CCN(Cc2ccc(C(F)(F)F)cc2)CC1 | 26.5
33 | CC(C)CCn1ccc(NC(=O)N2CCCC2CN2CCOCC2)n1 (centres undefined) | -7.64
34 | Nc1nc(CCC(=O)N2C[C@H](c3ccccc3)[C@@H](N)C2)cs1 | -20.5
35 | Cc1ccc(NC2(C(=O)N3CCn4cncc4C3)CCCCC2)cc1C | -12.1
36 | Cc1csc(N2CCN(Cc3cnc4c(c3)c(C)nn4C)CC2)n1 | -24.9
37 | Cc1ccccc1C(=O)N1CC(C(=O)NCC2CC2)C2(CCOCC2)C1 (centres undefined) | -1.13
38 | c1cncc(COCC2CN(Cc3cccnc3)Cc3ccnn3C2)c1 (centres undefined) | -9.95
39 | COCCC(=O)N1CC[C@@H]2O[C@@H](C)C[C@H]2C1 | -15.5
40 | CCN1CCC(NC(=O)CNC(C)Cn2cccn2)CC1 (centres undefined) | 11.4
41 | CCn1cc(C(=O)Nc2ccc(C)cc2C(=O)OC)cn1 | 16
42 | COc1ccsc1C(=O)N1CCCC(n2cncn2)C1 (centres undefined) | -2.59
43 | O=C(NCCN1C(=O)CCC1=O)c1nc2ccccc2c(=O)[nH]1 | -12.2
44 | O=C(CN1CCS(=O)(=O)CC1)Nc1ccc(N2CCCC2)nc1 | -5.27
45 | CN(Cc1cc2c(cc1OC(F)F)OCO2)Cc1nccn1C | -3.97
46 | COc1cccc(N2CCN(C(=O)c3noc4c3CCCC4)CC2)c1 | -20.2

Row | Compound | cytotoxicity at 70.5 h [%]
47 | CC(CNC(=O)c1cc(C2CC2)nc2c1cnn2C)Cn1cccn1 (centres undefined) | -6.63
48 | CCOC(=O)c1coc(N2CCN(Cc3ccc(C)cc3)C(=O)C2)n1 | 0.779
49 | Cc1ccc(CN2CCCC3(CCC(=O)N3)CC2)s1 (centres undefined) | -7.87
50 | CC(O)(CNC(=O)c1cccnc1-n1cccn1)c1ccsc1 (centres undefined) | -7.4
51 | Cc1cc(NC(=O)NC(C)CN2CCN(c3ccccc3)CC2)on1 (centres undefined) | -5.02
52 | COCCN1CCC(N(Cc2noc(C3CC3)n2)C(C)=O)C1 (centres undefined) | 10.7
53 | CNC(=O)CN1C(=O)CCC12CCCN(Cc1ccccc1F)C2 (centres undefined) | 6.16
54 | CNc1cc(C(=O)N2CCC3(CC2)Nc2ccccc2NC3=O)ccn1 | -4.39
55 | N#Cc1ccc(CN2CCCCC2Cn2cncn2)cc1 (centres undefined) | 11.7
56 | Cc1cc(CN2CCN(C(c3ccccc3)c3ccccc3)CC2)no1 | 1.19
57 | CC(=O)N(C)C1CCN(C(=O)NCCc2cc(F)ccc2F)CC1 | -13.7
58 | COc1ccccc1CN(Cc1nc(C)no1)C1CC1 | -20.3
59 | CN1C(=O)CC2(CCN(Cc3cnn(C)c3)CC2)c2ccccc21 | -2.77
60 | Cc1noc(C)c1CN1CCOC2(CCCN(c3ccccn3)C2)C1 (centres undefined) | -8.65
61 | CCc1noc(C(C)N2CCN(CCOCC(F)(F)F)CC2)n1 (centres undefined) | -2.37
62 | O=C(O)C1CCCN(c2nc3c(-c4ccccc4)csc3c(=O)[nH]2)C1 (centres undefined) | 0.25
63 | CCS(=O)(=O)N(C)CC(=O)Nc1ccc(Br)cn1 | 4.52
64 | CSc1ccsc1C(=O)N1CCN(CC(C)(C)O)CC1 | -0.902
65 | COc1ccc(C)cc1C1(CNc2cncc(Cl)n2)CCOCC1 | -8.23
66 | Cc1nnc(SCC(=O)Nc2csc3nc(=O)c(C)nn23)s1 | 7.9
67 | CC(=O)N1CCC2(CCCN(C(=O)CCN3CCCCC3)C2)C1 (centres undefined) | 20.2
68 | O=C(NCCC(O)c1ccoc1)Nc1cccs1 (centres undefined) | -9.28
69 | Cc1cccnc1CNC(=O)N(CCCO)C1CCc2ccccc21 (centres undefined) | -12.3

Row | Compound | cytotoxicity at 70.5 h [%]
70 | O=C(c1cnc(NCC2CCCO2)c(Cl)c1)N1CCCCC1 (centres undefined) | 30.2
71 | COc1cc(F)ccc1CC(=O)N1CC[C@H]2C(=O)NCCO[C@H]2C1 | 0.421
72 | Cc1nn(C)cc1-c1cc(C(=O)N2CCc3ncc(Cl)cc3C2)on1 | -2.35
73 | Cc1cc(C(=O)N2CCC(Nc3cccnn3)CC2)no1 | 11.5
74 | O=C(c1cnccn1)N1CCN(Cc2cccnc2)c2ncccc2C1 | -8.24
75 | CCOc1ncnc2c1CCN(S(=O)(=O)c1ccccc1)CC2 | -14.4
76 | CC(C#N)CSc1ccccc1NCC(=O)Nc1ccccc1 (centres undefined) | 14.3
77 | CCCN(C)CC1CCN(c2ccc(Br)c(C)n2)C1 (centres undefined) | 4.09
78 | CCCN(CC)c1ccc(C(=O)N2CCCC2c2cnn(C)c2)cn1 (centres undefined) | -5.94
79 | O=C(c1cccc(Cn2ccnc2)c1)N1CCCC(n2ccnc2)C1 (centres undefined) | -16.1
80 | COCCNC(=O)CN(C)C(C)c1nc(C)no1 (centres undefined) | 3.14
81 | O=C(CC1NC(N2CCc3ccccc32)=NC1=O)Nc1ccccc1 (centres undefined) | -5.06
82 | CC1(C)CN(Cc2c[nH]c(CC3CCCC3)n2)CC[C@]1(C)O | -5.46
83 | CN1CCc2[nH]nc(C(=O)N3CCC4(CCCO4)CC3)c2C1 | -0.824
84 | Cc1csc(N2CCN(Cc3cscn3)CC2C)n1 (centres undefined) | -4.06
85 | OC1(CN2CCCCC2)CCN(Cc2c[nH]c(CC3CCCC3)n2)C1 (centres undefined) | -8.48
86 | CCCc1nnc(N2CCN(C3CCCC3)CC2)o1 | -14.3
87 | O=C(Nc1ccc2c(c1)OCO2)Nc1cnn(C2CCOCC2)c1 | -0.609
88 | Cc1cc(CNC(=O)c2cccs2)ccc1S(C)(=O)=O | -3.96
89 | COC1CN(C(=O)COC(C)=O)CCC(=O)N(C)c2ccccc21 (centres undefined) | -5.15
90 | CC(=O)N1CCN(C(=O)Nc2ccc(Cl)cc2)[C@H]2CS(=O)(=O)C[C@H]21 | -2.86
91 | CCc1nsc(N2CCn3c(nnc3C(F)(F)F)C2)n1 | 2.89
92 | Cc1ccc(NC2CCN(C(=O)c3ccc(C#N)cc3)CC2)nn1 | -7.94

Row | Compound | cytotoxicity at 70.5 h [%]
93 | CN(CCc1ccncc1)C1CCCN(Cc2noc(C3CC3)n2)C1 (centres undefined) | -2.71
94 | CCCC(=O)N1CC[C@@H]2[C@H](CC1)N(Cc1cccnc1)CCS2(=O)=O | 4.18
95 | COCCCNC(=O)CN(C)C(=O)c1cc(Cl)ccc1O | 0.174
96 | CCOc1ccc(NC(=O)NCc2cccnc2OCC)cc1 | -9.72
97 | O=C(c1cc(-c2cn[nH]c2)nc2cc(F)ccc12)N1CCS(=O)(=O)CC1 | -13.7
98 | CN(C)Cc1cnc2n1CCN(C(=O)Cc1ccc(F)cc1)CC2 | -1.54
99 | Cc1cc(F)c(S(=O)(=O)Nc2ccn(CCC#N)n2)cc1F | -16.3
100 | COc1cccc(C(=O)N2CCN(Cc3nc(C(C)C)no3)CC2)c1 | -5.91
101 | COC(=O)c1ccc(NC(=O)CNCc2ccco2)cc1 | -5.33
102 | OCCC1CN(c2ncnc3[nH]cnc23)CCN1Cc1cccs1 (centres undefined) | -3.01
103 | CCc1cnc(CNC(=O)NCCCO)s1 | -3.22
104 | CCN(CC)C(=O)[C@@H]1C[C@H](N)CN1C(=O)c1cc2c([nH]c1=O)CCC2 | 14.4
105 | CN(C)C(=O)c1cccnc1-c1ccc2c(c1)OCCO2 | -18.6
106 | CC(C)N(C)[C@@H]1CCN(Cc2nccs2)[C@H]1Cc1ccncc1 | -8.84
107 | CSc1cccc(NC(=O)N2CCC3(CCC(=O)N(C4CC4)C3)CC2)c1 | -9.9
108 | CC(C)CCNC(=O)c1cccnc1Oc1cccnc1 | -6.47
109 | Cc1cc(N2CCCN(Cc3ccc(C)o3)CC2)ccn1 | -3.18
110 | Cc1ccc(NC2CCN(C(=O)c3cc(C(N)=O)cs3)CC2)nn1 | 11.5
111 | Cc1oncc1C(=O)N1CCC2(C1)CN(c1cccnc1)C(=O)CN2C (centres undefined) | -0.201
112 | COc1ccc(Br)c(NC(=O)NCc2cnn(C)c2)c1 | -13.3
113 | CC1(C)OCC2(CO1)CN(C(=O)c1ccccc1Br)C2 | -4.2
114 | O=C(NCCn1ccc(-c2ccncc2)n1)C1CC1 | -12
